The subject of this series is CCRIS mutagenicity, Ames/micronucleus/aberration tests. Nature of the series: CCRIS mutagenicity studies.

Experimental findings from PubChem BioAssay AID1259407 (Chemical Carcinogenesis Research Information System (CCRIS), 2018) are described below.

Activity calls are given as the source filed them. No rule for the calls is given here.

With `CC(C)N=C=NC(C)C`, the mutagenic call is “inactive; negative” (End Point: In vivo micronucleus, Test System: Bone marrow polychromatic erythrocytes, Species: Mouse, Strain/Sex: B6C3F1/Male, Route: Intraperitoneal); “inactive; negative” (End Point: In vivo micronucleus, Test System: Bone marrow polychromatic erythrocytes, Species: Rat, Strain/Sex: F344/N/Male, Route: Intraperitoneal); “active; positive; 100% mortality at 280 mg/kg” (End Point: In vivo micronucleus, Test System: Peripheral blood erythrocytes, Species: Mouse, Strain/Sex: B6C3F1/Female, Route: Dermal); “active; positive; 100% mortality at 280 mg/kg” (End Point: In vivo micronucleus, Test System: Peripheral blood erythrocytes, Species: Mouse, Strain/Sex: B6C3F1/Male, Route: Dermal); “inactive; positive (peripheral blood); negative (bone marrow)” (End Point: In vivo micronucleus, Test System: Peripheral blood normochromatic and polychromatic erythrocytes and bone marrow polychromatic erythrocytes, Species: Mouse, Strain/Sex: B6C3F1/Male, Route: Dermal); “active; positive in peripheral blood polychromatic erythrocytes; no significant increase” (End Point: In vivo micronucleus, Test System: Polychromatic erythrocytes (Bone marrow and peripheral blood), Species: Mouse, Strain/Sex: B6C3F1/Male, Route: Intraperitoneal). For the same compound, the mutagenic call (Test System: AMES SALMONELLA TYPHIMURIUM, Strain/Indicator: TA98, Metabolic Activation: HAMSTER, LIVER, S-9, AROCLOR 1254, Method: STANDARD PLATE) was “inactive; negative”; the mutagenic call (Test System: AMES SALMONELLA TYPHIMURIUM, Strain/Indicator: TA98, Metabolic Activation: NONE, Method: STANDARD PLATE) was “inactive; negative”; the mutagenic call (Test System: AMES SALMONELLA TYPHIMURIUM, Strain/Indicator: TA98, Metabolic Activation: RAT, LIVER, S-9, AROCLOR 1254, Method: STANDARD PLATE) was “inactive; negative”; the mutagenic call (Test System: AMES SALMONELLA TYPHIMURIUM, Strain/Indicator: TA100, Metabolic Activation: HAMSTER, LIVER, S-9, AROCLOR 1254, Method: STANDARD PLATE) was “inactive; negative”; the mutagenic call (Test System: AMES SALMONELLA TYPHIMURIUM, Strain/Indicator: TA100, Metabolic Activation: NONE, Method: STANDARD PLATE) was “inactive; negative”; the mutagenic call (Test System: AMES SALMONELLA TYPHIMURIUM, Strain/Indicator: TA100, Metabolic Activation: RAT, LIVER, S-9, AROCLOR 1254, Method: STANDARD PLATE) was “inactive; negative”. The mutagenic call by setting is: (Test System: AMES SALMONELLA TYPHIMURIUM, Strain/Indicator: TA1535, Metabolic Activation: HAMSTER, LIVER, S-9, AROCLOR 1254, Method: STANDARD PLATE) “inactive; negative”; (Test System: AMES SALMONELLA TYPHIMURIUM, Strain/Indicator: TA1535, Metabolic Activation: NONE, Method: STANDARD PLATE) “inactive; negative”; (Test System: AMES SALMONELLA TYPHIMURIUM, Strain/Indicator: TA1535, Metabolic Activation: RAT, LIVER, S-9, AROCLOR 1254, Method: STANDARD PLATE) “inactive; negative”; (Test System: AMES SALMONELLA TYPHIMURIUM, Strain/Indicator: TA1537, Metabolic Activation: HAMSTER, LIVER, S-9, AROCLOR 1254, Method: STANDARD PLATE) “inactive; negative”; (Test System: AMES SALMONELLA TYPHIMURIUM, Strain/Indicator: TA1537, Metabolic Activation: NONE, Method: STANDARD PLATE) “inactive; negative”; (Test System: AMES SALMONELLA TYPHIMURIUM, Strain/Indicator: TA1537, Metabolic Activation: RAT, LIVER, S-9, AROCLOR 1254, Method: STANDARD PLATE) “inactive; negative”. Moreover, the mutagenic call by setting is: (Test System: AMES SALMONELLA TYPHIMURIUM, Strain/Indicator: TA1538, Metabolic Activation: HAMSTER, LIVER, S-9, AROCLOR 1254, Method: STANDARD PLATE) “inactive; negative”; (Test System: AMES SALMONELLA TYPHIMURIUM, Strain/Indicator: TA1538, Metabolic Activation: NONE, Method: STANDARD PLATE) “inactive; negative”; (Test System: AMES SALMONELLA TYPHIMURIUM, Strain/Indicator: TA1538, Metabolic Activation: RAT, LIVER, S-9, AROCLOR 1254, Method: STANDARD PLATE) “inactive; negative”; (Test System: Ames Salmonella typhimurium, Strain/Indicator: TA97, Metabolic Activation: None, Method: Preincubation) “inactive; negative”; (Test System: Ames Salmonella typhimurium, Strain/Indicator: TA97, Metabolic Activation: Rat, liver, S-9, Aroclor 1254, Method: Preincubation) “inactive; negative”; (Test System: Ames Salmonella typhimurium, Strain/Indicator: TA97, Metabolic Activation: Syrian hamster, liver, S-9, Aroclor 1254, Method: Preincubation) “inactive; negative”. In addition, the mutagenic call is, setting by setting: (Test System: Ames Salmonella typhimurium, Strain/Indicator: TA98, Metabolic Activation: None, Method: Preincubation) “inactive; negative”; (Test System: Ames Salmonella typhimurium, Strain/Indicator: TA98, Metabolic Activation: Rat, liver, S-9, Aroclor 1254, Method: Preincubation) “inactive; negative”; (Test System: Ames Salmonella typhimurium, Strain/Indicator: TA98, Metabolic Activation: Syrian hamster, liver, S-9, Aroclor 1254, Method: Preincubation) “inactive; negative”; (Test System: Ames Salmonella typhimurium, Strain/Indicator: TA100, Metabolic Activation: None, Method: Preincubation) “inactive; negative”; (Test System: Ames Salmonella typhimurium, Strain/Indicator: TA100, Metabolic Activation: Rat, liver, S-9, Aroclor 1254, Method: Preincubation) “inactive; negative”; (Test System: Ames Salmonella typhimurium, Strain/Indicator: TA100, Metabolic Activation: Syrian hamster, liver, S-9, Aroclor 1254, Method: Preincubation) “inactive; negative”. Also, the mutagenic call was “inactive; negative” (Test System: Ames Salmonella typhimurium, Strain/Indicator: TA1535, Metabolic Activation: None, Method: Preincubation); “inactive; negative” (Test System: Ames Salmonella typhimurium, Strain/Indicator: TA1535, Metabolic Activation: Rat, liver, S-9, Aroclor 1254, Method: Preincubation); “inactive; negative” (Test System: Ames Salmonella typhimurium, Strain/Indicator: TA1535, Metabolic Activation: Syrian hamster, liver, S-9, Aroclor 1254, Method: Preincubation); “active; positive. reevaluation of results: positive” (Test System: MOUSE LYMPHOMA, Strain/Indicator: L5178Y (TK+/TK-), Metabolic Activation: NONE, Method: SUSPENSION/PLATE); “active; positive. reevaluation of results: positive” (Test System: MOUSE LYMPHOMA, Strain/Indicator: L5178Y (TK+/TK-), Metabolic Activation: RAT, LIVER, S-9, AROCLOR 1254, Method: SUSPENSION/PLATE).

With `NNC(=O)c1[nH]c2ccccc2c1N`, the mutagenic call was “active; positive” (Test System: AMES SALMONELLA TYPHIMURIUM, Strain/Indicator: TA97, Metabolic Activation: NONE, Method: PREINCUBATION); “inactive; negative” (Test System: AMES SALMONELLA TYPHIMURIUM, Strain/Indicator: TA97, Metabolic Activation: S-9 (10%), Method: PREINCUBATION); “active; positive” (Test System: AMES SALMONELLA TYPHIMURIUM, Strain/Indicator: TA98, Metabolic Activation: NONE, Method: PREINCUBATION); “inactive; negative” (Test System: AMES SALMONELLA TYPHIMURIUM, Strain/Indicator: TA98, Metabolic Activation: S-9 (10%), Method: PREINCUBATION); “inactive; negative” (Test System: AMES SALMONELLA TYPHIMURIUM, Strain/Indicator: TA100, Metabolic Activation: NONE, Method: PREINCUBATION); “inactive; negative” (Test System: AMES SALMONELLA TYPHIMURIUM, Strain/Indicator: TA100, Metabolic Activation: S-9 (10%), Method: PREINCUBATION). Also, the mutagenic call is, setting by setting: (Test System: AMES SALMONELLA TYPHIMURIUM, Strain/Indicator: TA102, Metabolic Activation: NONE, Method: PREINCUBATION) “inactive; negative”; (Test System: AMES SALMONELLA TYPHIMURIUM, Strain/Indicator: TA102, Metabolic Activation: S-9 (10%), Method: PREINCUBATION) “inactive; negative”.
